Source: ChEMBL document CHEMBL1136099, “Heterocyclic thrombin inhibitors. Part 1: design and synthesis of amidino-phenoxy quinoline derivatives” (Bioorg Med Chem Lett, 2003)

Tests used:
[1] = Partition coefficient (logP); type: physicochemical; settings: octanol/water
[2] = biological target: Plasminogen (Homo sapiens, UniProt P00747); test: Inhibitory activity against plasmin in human plasma
[3] = species on record: Homo sapiens; test: Effective dose (in vitro) using activated partial thromboplastin time (aPTT); type: functional
[4] = biological target: Prothrombin (Homo sapiens, UniProt P00734); test: In vitro inhibitory activity against thrombin in human plasma; type: cell-free
[5] = biological target: Serine protease 1 (Homo sapiens, UniProt P07477); test: Inhibitory activity against trypsin
[6] = biological target: Coagulation factor X (Homo sapiens, UniProt P00742); test: Inhibitory activity against coagulation factor X in human plasma; type: cell-free
Sequence of Coagulation factor X (P00742 41-179 limits assumed): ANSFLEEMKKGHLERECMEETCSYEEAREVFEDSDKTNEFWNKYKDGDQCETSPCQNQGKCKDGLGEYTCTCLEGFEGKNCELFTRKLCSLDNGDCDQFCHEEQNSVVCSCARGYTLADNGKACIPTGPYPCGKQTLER
Sequence of Coagulation factor X (P00742 235-488 limits assumed): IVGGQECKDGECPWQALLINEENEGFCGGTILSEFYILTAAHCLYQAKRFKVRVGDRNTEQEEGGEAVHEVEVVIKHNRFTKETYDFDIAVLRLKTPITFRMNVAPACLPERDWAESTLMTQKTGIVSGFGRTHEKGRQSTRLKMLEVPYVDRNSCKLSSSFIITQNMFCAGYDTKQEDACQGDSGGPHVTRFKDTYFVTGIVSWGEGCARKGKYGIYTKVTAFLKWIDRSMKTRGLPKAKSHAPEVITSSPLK

Sequence of Plasminogen (P00747 97-580 limits assumed): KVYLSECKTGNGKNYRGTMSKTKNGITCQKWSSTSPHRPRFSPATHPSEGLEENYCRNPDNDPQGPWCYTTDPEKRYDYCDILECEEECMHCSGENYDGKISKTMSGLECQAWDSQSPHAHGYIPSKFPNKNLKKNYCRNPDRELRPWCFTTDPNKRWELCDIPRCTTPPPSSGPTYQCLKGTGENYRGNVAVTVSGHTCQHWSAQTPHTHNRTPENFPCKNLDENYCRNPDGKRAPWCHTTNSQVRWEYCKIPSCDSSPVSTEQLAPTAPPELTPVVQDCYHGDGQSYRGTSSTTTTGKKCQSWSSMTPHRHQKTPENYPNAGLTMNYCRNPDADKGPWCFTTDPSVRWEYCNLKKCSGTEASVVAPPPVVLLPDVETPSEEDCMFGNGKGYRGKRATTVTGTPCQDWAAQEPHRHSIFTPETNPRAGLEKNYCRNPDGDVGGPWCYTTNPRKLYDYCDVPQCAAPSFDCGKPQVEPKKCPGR
Sequence of Plasminogen (P00747 581-810 limits assumed): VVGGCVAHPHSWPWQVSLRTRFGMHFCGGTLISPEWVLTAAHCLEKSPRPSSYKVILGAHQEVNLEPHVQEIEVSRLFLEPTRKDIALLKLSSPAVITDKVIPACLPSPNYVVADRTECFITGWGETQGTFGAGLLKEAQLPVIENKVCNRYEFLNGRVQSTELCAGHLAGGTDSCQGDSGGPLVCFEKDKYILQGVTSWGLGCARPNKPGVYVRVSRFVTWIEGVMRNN
Sequence of Serine protease 1 (P07477 whole entry): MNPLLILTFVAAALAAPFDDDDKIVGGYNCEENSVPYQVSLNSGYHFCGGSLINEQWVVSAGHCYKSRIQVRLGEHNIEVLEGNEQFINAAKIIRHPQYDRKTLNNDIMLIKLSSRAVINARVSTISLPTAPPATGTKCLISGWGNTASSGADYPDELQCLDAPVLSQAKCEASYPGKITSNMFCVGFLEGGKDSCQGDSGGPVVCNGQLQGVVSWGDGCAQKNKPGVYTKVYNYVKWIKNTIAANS

Compound	logP [1]	IC50 [2] [nM]	ED200 [3] [µM]	IC50 [4] [nM]	IC50 [5] [nM]	IC50 [6] [nM]
Cc1ccccc1-c1ccc2c(C)cc(Oc3ccc(C(=N)N)cc3)nc2c1	> 3.5	8300	7.9	6	2900	
CCOC(=O)C(CC)c1ccc2c(C)cc(Oc3ccc(C(=N)N)cc3)nc2c1 (stereo not given)				10		
CCOC(=O)C1(c2ccc3c(C)cc(Oc4ccc(C(=N)N)cc4)nc3c2)CCCC1		5800		3	560	1500
C/C(=C\C(=O)O)c1ccc2c(C)cc(Oc3ccc(C(=N)N)cc3)nc2c1		25000		600	8100	
CCOC(=O)CNC(=O)c1ccc(C)c(-c2ccc3c(C)cc(Oc4ccc(C(=N)N)cc4)nc3c2)c1	1.3		3.3	10		
CCOC(=O)Cc1ccc2c(C)cc(Oc3ccc(C(=N)N)cc3)nc2c1				92		
Cc1cc(Sc2ccc(C(=N)N)cc2)nc2cc(Br)ccc12				196		
CCOC(=O)C(C)(C)c1ccc2c(C)cc(Oc3ccc(C(=N)N)cc3)nc2c1		20000		6	2400	
Cc1ccccc1-c1ccc2c(C)cc(Nc3ccc(C(=N)N)cc3)nc2c1		14800		37	3500	
CCOC(=O)/C=C(\C)c1ccc2c(C)cc(Oc3ccc(C(=N)N)cc3)nc2c1		6400		16	6700	
Cc1cc(Oc2ccc(C(=N)N)cc2)nc2cc(Br)ccc12				66		
Cc1ccc(C(=O)NCC(=O)O)cc1-c1ccc2c(C)cc(Oc3ccc(C(=N)N)cc3)nc2c1	0.5		0.9	8		
Cc1cc(Nc2ccc(C(=N)N)cc2)nc2cc(Br)ccc12				87		
Cc1ccc(-c2ccc3c(C)cc(Oc4ccc(C(=N)N)cc4)nc3c2)cc1		12200		18	4200	
